Positions of bridges follow the written chain, without caps; N, C: chain ends. Chains are numbered I, II in the order given. No end group written: not given here.
B1: CPF-4: 16 amino acid chain (SEQ ID NO:2) disulfide bonded to the 54 amino acid chain of MPF-4 (SEQ ID NO:1) (protein)
chain 1: EAEEDGDLQCLCVKTT
chain 2: SQVRPRHITSLEVIKAGPHCPTAQLIATLKNGRKICLDLQAPLYKKIIKKLLES
modifications: disulfide I:10-II:20, I:12-II:36; not fully specified

Key:
[1] = tested on: endothelial cells; experiment: Endothelial cell proliferation inhibition assay; format: cell-based, bovine; conditions: endothelial cells with 20 ng/ml fibroblast growth factor, four days growth, cell count; for IC50, inhibition of endothelial cell proliferation: average of 4 wells; for IC50: molar figure in parentheses
Procedure: Primary retinal capillary endothelial cell cultures were prepared in substantial accordance with the procedure described in Buzney et al., Retinal Vascular Endothelial Cells and Pericytes: Differential Growth Characteristics in vitro, Invest. Ophthalmol. Visual Sci. 24: 470-483 (1983) and separated from contaminating cells as described in Voyta et al., Identification and Isolation of Endothelial Cells Based on their Increased Uptake of Acetylated-low density Lipoprotein, J. Cell Biol. 99: 2034-2040 (1981).
Alternatively, bovine heart endothelial cells were obtained (American Type Culture Collection; Rockville, Md. 20852) for use in the assay. Irrespective of source, the endothelial cells were seeded into 24 well tissue culture plates at a cell density of 10,000 cells/well in Dulbecco's modified Eagle Medium (GIBCO; Grand Island, N.Y.) supplemented with 5% bovine serum albumin, 1% penicillin-streptomycin, 1% L-glutamine, and 20 ng/ml fibroblast growth factor. Immediately after seeding the cells, various amounts of PF-4 (Sigma Chemical Co.; St. Louis, Mo. 63178), MPF-4, or CPF-4 (isolated as describe in the above examples) were added to individual growth wells. MPF-4 and CPF-4 were tested at final concentrations ranging from 0.001 to 1 μ/ml. For comparison, native PF-4 was tested over a range of 0.001 to 3 μ/ml, and supplemented medium alone served as the negative control. The endothelial cell cultures were allowed to grow for four days at 37 C., 5% CO2 in a humidified tissue culture incubator. The cultures were then harvested individually by trypsinization and counted using a Zm-Coulter Counter (Coulter Electronics. Inc.; Opa Locka, Fla. 33054).
The results were plotted in FIG. 1, and each point on the graph represented the average of 4 data points; ie […]. […] The inhibitory concentration for MPF-4 is close to the physiological range of PF-4 found in human plasma (Id.).

[2] = Heparin affinity chromatography; conditions: elute in high-affinity heparin binding fraction (0.7M to 2.0M NaCl)
Text: The eluted proteins are then contacted with a heparin affinity resin. The ordinarily skilled artisan will readily realize that this step is best achieved in a column chromatography mode. Heparin affinity columns are commercially available from some of the same vendors mentioned above. In this step, the molecules of interest, both MPF-4 or CPF-4, bind to the heparin column and are eluted using an increasing linear salt gradient. The preferred salt is NaCl, and the portion of the gradient that is preferably collected is the 0.1-2.0M portion. The more highly preferred portion of the gradient to collect is the 0.7-2.0M portion.
The C4-pool was further fractionated by heparin affinity chromatography on a Econo-pac™ 5 ml heparin-sepharose cartridge (BioRad, Richmond, Calif. 94804). The bound proteins were eluted by a linear gradient of 0 to 2.0M NaCl in phosphate buffer saline (PBS) at a flow rate of 2.0 ml/min. The proteins that eluted from the column were pooled into three fractions: (1) non-heparin binding (flow through), (2) low-affinity heparin binding (0 to 0.7M NaCl), and (3) high-affinity heparin binding (0.7M to 2.0M NaCl) fractions.

| Molecule | IC50, inhibition of endothelial cell proliferation [1] | IC50 [1] | heparin binding [2] |
| --- | --- | --- | --- |
| MPF-4: 54 amino acid protein, SEQ ID NO:1; homologous with the 54 C-terminal residues of PF-4, beginning with Ser-17 (SQVRPRHITSLEVIKAGPHCPTAQLIATLKNGRKICLDLQAPLYKKIIKKLLES) | 0.03 to 0.05 µg/mL | ~7 nM | bind heparin |
| PF-4: native human platelet factor-4 (Sigma Chemical Co.), tested for comparison [reference compound] | 0.8 to 1 µg/mL | ~130 nM |  |
| B1 | approximately 150 ng/ml | 20 nM | bind heparin |

From patent US5538949A, “Modified platelet factor-4 and cleaved platelet factor 4” (Eli Lilly and Company, priority 1995, dated 1996)
